# Results published in patent US20230364019A1, “Multi-targeting cell-derived nanoparticles as a versatile theranostic” (Fondazione Istituto Italiano di Tecnologia, priority 2020, published 2023).
# System: U-251 MG cell line
# Assay: % cell proliferation of U-251 MG cell line after 72 h with non-encapsulated and encapsulated 3PO
# Type: cell-based
# Conditions: U-251 cells, inhibitor concentration 5 μM
# Description: FIG. 5. % Cell proliferation of the U-251 MG cell line, after 72 h, using various concentrations of the non-encapsulated and encapsulated (UHT-CMNPs) model drug 3PO.
# The ability of the F-CMNPs to act as drug delivery systems was also studied. […] As a proof of concept, we loaded the glucose inhibitor (2E)-3-(3-Pyridinyl)-1-(4-pyridinyl)-2-propen-1-one (3PO) in the F-CMNPs.
smiles,measurement,value
"O=C(/C=C/c1cccnc1)c1ccncc1 [3PO, (2E)-3-(3-Pyridinyl)-1-(4-pyridinyl)-2-propen-1-one]",reduction of cells' proliferation,not affecting
